Laboratory results reported in the C3SDB collision cross section collection.
Several values for one entry are separate records, joined by “and”; a condition that tells them apart may be missing. Equal entries are not always repeated.

conditions: [M+H-H2O]+; instrument: TW; calibrated with polyalanine and drug standards

Row | collision cross section (N2) [Å²] | Structure (SMILES)
1 | 150.7 | C=C1C(=O)O[C@@H]2[C@H]3O[C@]3(C)CC/C=C(\C)CC[C@@H]12 [PARTHENOLIDE]
2 | 204 | CC(C)CCC[C@@H](C)[C@H]1CC[C@H]2C3=CC[C@H]4C[C@@H](O)CC[C@]4(C)[C@H]3CC[C@]12C [LATHOSTEROL]
3 | 170.6 | CC1=CC(=O)[C@H]2C(C)(C)CCC[C@]2(C)[C@@]1(O)CCc1ccoc1 [SOLIDAGENONE]

same assay, conditions: [M+H]+; instrument: TW; calibrated with polyalanine and drug standards

Row | Structure (SMILES) | collision cross section (N2)
4 | Cc1c(O)c(=O)ccn1C [DEFERIPRONE] | 123.2 Å²
5 | O=c1c(-c2ccccc2)coc2cc(O)cc(O)c12 [5,7-DIHYDROXYISOFLAVONE] | 152.3 Å²
6 | Cc1cc(=O)oc2c(O)c(O)ccc12 [4-METHYLDAPHNETIN] | 134.8 Å²
7 | Cn1c(=O)[nH]c(=O)c2[nH]cnc21 [3-METHYLXANTHINE] | 127.9 Å²
8 | Nc1ccc(S(=O)(=O)Nc2ccc(Cl)nn2)cc1 [SULFACHLORPYRIDAZINE] | 158.2 Å²
9 | COc1cc2c(c(OC)c1OC)-c1ccc(O)c(=O)cc1[C@@H](N)CC2 [TRIMETHYLCOLCHICINIC ACID] | 181 Å²
10 | CC[C@H]1OC(=O)[C@H](C)C(=O)[C@H](C)[C@@H](O[C@@H]2O[C@H](C)C[C@H](N(C)C)[C@H]2O)[C@](C)(OC)C[C@@H](C)C(=O)[C@H](C)[C@H]2N(CCCCn3cnc(-c4cccnc4)c3)C(=O)O[C@]12C [TELITHROMYCIN] | 269.7 Å²
11 | CO[C@H]1/C=C/O[C@@]2(C)Oc3c(C)c(O)c4c(c3C2=O)C(=O)/C(=C/NN2CCN(C)CC2)C(=C4O)NC(=O)/C(C)=C\C=C\[C@H](C)[C@H](O)[C@@H](C)[C@@H](O)[C@@H](C)[C@H](OC(C)=O)[C@@H]1C [RIFAMPIN] | 280.3 Å²
12 | COc1ccc([C@@H](C)C(=O)c2ccc(O)cc2O)cc1 [ANGOLENSIN (R)] | 162 Å²
13 | CSc1nc2cc(Oc3cccc(Cl)c3Cl)c(Cl)cc2[nH]1 [TRICLABENDAZOLE] | 179.3 Å²
14 | COc1ccc2c(c1O)-c1c(OC)c(OC)cc3c1[C@H](C2)N(C)CC3 [S-ISOCORYDINE (+)] | 181.9 Å²
15 | CC1=CC(=O)c2c(O)cccc2C1=O [PLUMBAGIN] | 124.1 Å²
16 | CO[C@@]12[C@H](COC(N)=O)C3=C(C(=O)C(C)=C(N)C3=O)N1C[C@@H]1N[C@@H]12 [MITOMYCIN C] | 169.5 Å²
17 | O=C(CCCN1CCC(O)(c2ccc(Cl)cc2)CC1)c1ccc(F)cc1 [HALOPERIDOL] | 191.7 Å²
18 | N[C@@H](C(=O)O)[C@@H](O)[C@H](O)[C@H](O)CO [GLUCOSAMINIC ACID] | 138.8 Å²
19 | Oc1cc(O)c2c(c1)O[C@H](c1cc(O)c(O)c(O)c1)[C@H](O)C2 [EPIGALLOCATECHIN] | 165.5 Å²
20 | COc1ccc(NS(=O)(=O)c2ccc(N)cc2)nn1 [SULFAMETHOXYPYRIDAZINE] | 159.4 Å²
21 | CC(C)[C@@H]1NC(=O)[C@H](C)OC(=O)[C@@H](C(C)C)NC(=O)[C@@H](C(C)C)OC(=O)[C@H](C(C)C)NC(=O)[C@H](C)OC(=O)[C@@H](C(C)C)NC(=O)[C@@H](C(C)C)OC(=O)[C@H](C(C)C)NC(=O)[C@H](C)OC(=O)[C@@H](C(C)C)NC(=O)[C@@H](C(C)C)OC1=O [VALINOMYCIN] | 327.4 Å²
22 | C=CCc1ccc2c(c1)OCO2 [SAFROLE] | 138.6 Å²
23 | CC1=C(O)C(=O)C=C2C1=CC=C1[C@@]2(C)CC[C@@]2(C)[C@@H]3C[C@](C)(C(=O)O)CC[C@]3(C)CC[C@]12C [CELASTROL] | 205.6 Å²
24 | COc1cc2c(cc1OC)C(=O)OC2 [METAMECONINE] | 137.6 Å²

Row | Structure (SMILES) | collision cross section (N2)
25 | CC12CCCC(O)(C1)C1CC(C)(C)C1CC2 (stereo not drawn) [beta-CARYOPHYLLENE ALCOHOL] | 146.1 Å²
26 | CC[C@H]1[C@@H]2C[C@H]3[C@@H]4N(C)c5ccccc5[C@]45C[C@@H]([C@H]2[C@H]5O)N3[C@@H]1O [AJMALINE] | 172.9 Å²
27 | CCOc1nc2cccc(C(=O)OC(C)OC(=O)OC3CCCCC3)c2n1Cc1ccc(-c2ccccc2-c2nn[nH]n2)cc1 (centres undefined) [CANDESARTAN CILEXTIL] | 241.5 Å²
28 | Clc1ccc2c(c1)C(N1CCNCC1)=Nc1ccccc1O2 [AMOXAPINE] | 171.2 Å²
29 | COc1cc2ccc(=O)oc2c2ccoc12 [SPHONDIN] | 139.9 Å²
30 | NC(N)=NC(=O)Cc1c(Cl)cccc1Cl [GUANFACINE] | 148.9 Å²
31 | Nc1nnc(-c2cccc(Cl)c2Cl)c(N)n1 [LAMOTRIGINE] | 150.6 Å²
32 | Nc1ccc(S(=O)(=O)Nc2ccccn2)cc1 [SULFAPYRIDINE] | 151.6 Å²
33 | CO[C@]12C[C@@H](COC(=O)c3cncc(Br)c3)CN(C)[C@@H]1Cc1cn(C)c3cccc2c13 [NICERGOLINE] | 213.8 Å²
34 | O=C(O)C1=C/C(=N/Nc2ccc(S(=O)(=O)Nc3ccccn3)cc2)C=CC1=O [SULFASALAZINE] | 200.4 Å²
35 | CC(=O)CCCCn1c(=O)c2c(ncn2C)n(C)c1=O [PENTOXIFYLLINE] | 158.5 Å²
36 | CC(=O)N(c1onc(C)c1C)S(=O)(=O)c1ccc(N)cc1 [SULFISOXAZOLE ACETYL] | 161.2 Å²
37 | COC[C@]12CN(C=O)C3[C@@H]4[C@H](OC)C1[C@]3(C1CC3(O)C(OC)C(O)C4(OC(C)=O)C1C3OC(=O)c1ccccc1)[C@@H](OC)C[C@H]2O (some centres undefined) [OXONITINE] | 236.2 Å²
38 | COc1c(-c2coc3cc4c(cc3c2=O)CC(O)C(C)(C)O4)ccc2c1C=CC(C)(C)O2 (centres undefined) [MUNDULONE] | 210.9 Å²
39 | CCCCc1nc(Cl)c(CO)n1Cc1ccc(-c2ccccc2-c2nn[nH]n2)cc1 [LOSARTAN] | 199.2 Å²
40 | C/C(=C(\CCOP(=O)(O)O)SC(=O)c1ccccc1)N(C=O)Cc1cnc(C)nc1N [BENFOTIAMINE] | 192.7 Å²
41 | CC[C@H]1OC(=O)[C@H](C)[C@@H](O[C@H]2C[C@@](C)(OC)[C@@H](O)[C@H](C)O2)[C@H](C)[C@@H](O[C@@H]2O[C@H](C)C[C@H](N(C)C)[C@H]2O)[C@](C)(O)C[C@@H](C)[C@@H]2N[C@@H](COCCOC)O[C@H]([C@H]2C)[C@]1(C)O [DIRITHROMYCIN] | 284.2 Å²
42 | CN(C)CCCC1(c2ccc(F)cc2)OCc2cc(C#N)ccc21 (centres undefined) [CITALOPRAM] | 178.9 Å²
43 | Cc1nnc(NS(=O)(=O)c2ccc(N)cc2)s1 [SULFAMETHIZOLE] | 155.2 Å²
44 | COc1ccc([C@H]2Oc3cc(OC)cc(OC)c3C[C@H]2O)cc1 [EPIAFZELECHIN TRIMETHYL ETHER] | 170 Å²

The next lines start with the values.

Row | collision cross section (N2) | Structure (SMILES)
45 | 200 Å² | CC(C)(C)NC(=O)[C@H]1CC[C@H]2[C@@H]3CC[C@H]4NC(=O)C=C[C@]4(C)[C@H]3CC[C@]12C [FINASTERIDE]
46 | 130.5 Å² | COc1cc(O)c(C(C)=O)c(O)c1 [4-O-METHYLPHLORACETOPHENONE]
47 | 205.9 Å² | CC(=O)O[C@@H]1CC2C(C)(C)[C@H](O)CC[C@]2(C)C2CC[C@@]3(C)[C@H](c4ccoc4)OC(=O)C4OC43[C@@]21C (stereo partly drawn) [alpha-DIHYDROGEDUNOL]
48 | 171 Å² | CCn1cc(C(=O)O)c(=O)c2cnc(N3CCNCC3)nc21 [PIPEMIDIC ACID]
49 | 146.3 Å² | C[C@H]1CC[C@@H](C(C)(C)O)CC2=C1CC[C@@H]2C [GUAIOL(-)]
50 | 130.9 Å² | O=C(O)c1cc(O)c(O)c(O)c1 [GALLIC ACID]
51 | 140.7 Å² | CC(=O)Nc1nnc(S(N)(=O)=O)s1 [ACETAZOLAMIDE]
52 | 120.3 Å² | O=C(O)c1cccnc1 [NIACIN]
53 | 124.9 Å² | COc1ccc(C(C)=O)c(O)c1 [PAEONOL]
54 | 185.3 Å² and 173.3 Å² | O=C(O)c1cn(C2CC2)c2cc(N3CCNCC3)c(F)cc2c1=O [CIPROFLOXACIN]
55 | 124.9 Å² | C=C(C)[C@H]1CC=C(C(=O)O)CC1 [PERILLIC ACID (-)]
56 | 183 Å² | C[C@]12CCC(=O)C=C1C=C[C@@H]1[C@@H]2CC[C@@]2(C)[C@H]1CC[C@@]21CCC(=O)O1 [CANRENONE]
57 | 150.2 Å² | CC1=C2C(=CO[C@H](C)[C@H]2C)C(=O)C(C(=O)O)=C1O [CITRININ]
58 | 208.4 Å² | C[C@@H]1CC[C@@]2(OC1)O[C@H]1C[C@H]3[C@@H]4CC=C5C[C@@H](O)CC[C@]5(C)[C@H]4CC[C@]3(C)[C@H]1[C@@H]2C [DIOSGENIN]
59 | 148.1 Å² | Cc1ccc2c(c1)CC[C@H]1CC(=O)CC[C@]21C [13-METHYL-4,4-BISNOR-8,11,13-PODOCARPATRIEN-3-ONE]
60 | 186 Å² | COC(=O)[C@H]1[C@H]2C[C@H]3c4[nH]c5ccccc5c4CCN3C[C@@H]2CC[C@@H]1O [CORYNANTHINE]

same assay, conditions: [M+Na]+; instrument: TW; calibrated with polyalanine and drug standards

Row | collision cross section (N2) [Å²] | Structure (SMILES)
61 | 219.7 | CC(=O)Oc1cc2c(c(C)c1OC(C)=O)CC=C1[C@@]2(C)CC[C@@]2(C)C3C[C@](C)(C(=O)O)CC[C@]3(C)CC[C@]12C (some centres undefined) [DIHYDROCELASTRYL DIACETATE]
62 | 196.7 | C[C@H](CCC(=O)O)[C@H]1CC[C@H]2[C@@H]3CC[C@@H]4C[C@H](O)CC[C@]4(C)[C@H]3C[C@H](O)[C@]12C [DEOXYCHOLIC ACID]
63 | 198.1 | COC(=O)CC[C@@H](C)[C@H]1CC[C@H]2[C@@H]3[C@H](O)C[C@@H]4C[C@H](O)CC[C@]4(C)[C@H]3C[C@H](O)[C@]12C [CHOLIC ACID, METHYL ESTER]
64 | 234.8 | C[C@H]1[C@H](C)CC[C@]2(C(=O)O)CC[C@]3(C)C(=CC[C@@H]4[C@@]5(C)C[C@@H](O)[C@H](O)[C@@](C)(CO)[C@@H]5[C@H](O)C[C@]43C)[C@H]12 [MADECASSIC ACID]
